Legend:
[1] = test system: intestinal barrier function; assay: Intestinal barrier function biomarker panel (plasma FABP2, claudin 3, citrulline) in children after cardiopulmonary bypass; conditions: for Association with changes in post-operative FABP2, claudin3, or citrulline: caudal or spinal, post-operative pain management, p>0.05
Experimental: A panel of plasma biomarkers was used to reflect intestinal epithelial cellular and paracellular structure (FABP2 and claudin 3), as well as cellular and paracellular function (citrulline and DSPT). In particular, twenty children aged newborn to 18 years undergoing repair or palliation of congenital heart disease with CPB were examined. Plasma FABP2, claudin 3, and citrulline were measured after induction of general anesthesia, and at 6, 12, 24, 48, and 120 hours post-operatively.
(§1) Inclusion criteria were age greater than 37 weeks corrected gestational age and a diagnosis of CHD requiring surgical repair or palliation with the use of CPB. Exclusion criteria were known pre-existing gastrointestinal dysfunction, immune dysfunction, active intracranial bleeding, and anuric renal failure. All operations were performed by two surgeons. CPB and anesthetic regimens were per usual care.
Blood samples for measurement of plasma FABP2, claudin 3, and citrulline were collected from indwelling intravascular catheters pre-operatively after induction of general anesthesia, but prior to CPB, and at 6, 12, 24, 48, and ≧120 hours post-operatively. […]
Plasma concentrations of human FABP2 were evaluated by ELISA according to the manufacturer's protocol (Standards range: 10 000 pg/ml to 156.25 pg/ml) (R&D Systems, Minneapolis, Minn.). Claudin 3 concentration was evaluated by ELISA in plasma from patients according to manufacturer's instruction (standard range from 20 ng/ml to 0.312 ng/ml) (Uscn life science Inc, Wuhan, China). […]
Samples were separated on Phenomenex Luna HILIC 200A SB-C18, 3 μm, 150×2.00 mm column (Torrance, Calif.) using Paradigm MS4B-multi-dimensional separations module (Michrom BioResources, Inc., Auburn, Calif.). […] Full injection loop (20 μl) was used to introduce 2 μl sample diluted with 18 μl of solvent B. AB SCIEX API 3000 triple-quadrupole mass spectrometer (Applied Biosystems, Foster City, Calif.) controlled by Analyst 1.5.1 in-line with the HPLC was used for citrulline detection and quantitative analysis.

plasma FABP2 = assay: Serial plasma FABP2 (ELISA) in children after cardiopulmonary bypass for CHD, by treatment factor; conditions: children after CPB; for Association of infusion with elevation in plasma FABP2 over time: vasoactive infusions, any dose, p<0.01
Experimental: as §1
Blood samples for measurement of plasma FABP2, claudin 3, and citrulline were collected from indwelling intravascular catheters pre-operatively after induction of general anesthesia, but prior to CPB, and at 6, 12, 24, 48, and ≧120 hours post-operatively. Final samples at ≧120 hours were collected between 120 and 168 hours post-operatively to evaluate the return to baseline values. Control samples were obtained intra-operatively from the CPB circuits prior to connection to the patient. […]
Clinical data included candidate factors likely to alter intestinal barrier function. […] Vasoactive-inotrope score (VIS) was determined at time of sample collection and was previously validated (see, e.g., Gaies, et al., Pediatric critical care medicine: a journal of the Society of Critical Care Medicine and the World Federation of Pediatric Intensive and Critical Care Societies 2010; 11:234-8).
Plasma concentrations of human FABP2 were evaluated by ELISA according to the manufacturer's protocol (Standards range: 10 000 pg/ml to 156.25 pg/ml) (R&D Systems, Minneapolis, Minn.). Claudin 3 concentration was evaluated by ELISA in plasma from patients according to manufacturer's instruction (standard range from 20 ng/ml to 0.312 ng/ml) (Uscn life science Inc, Wuhan, China).
Data were analyzed using STATA SE/11 software. […] As citrulline values were normally distributed, the effect of binary variables on citrulline were evaluated with a Student's t-test. […] The effect continuous and categorical variables over time on repeated log-transformed plasma FABP2, log-transformed claudin 3, and citrulline was evaluated with multi-level mixed-effects linear regression. […]

| Structure (SMILES) | Association with changes in post-operative FABP2, claudin3, or citrulline [1] | Association with elevated plasma FABP2 (plasma FABP2; p=0.03) | Association of infusion with elevation in plasma FABP2 over time (plasma FABP2) | Risk for intestinal barrier dysfunction ([1]; children undergoing CPB, post-operative use to maintain mean arterial blood pressure) |
| --- | --- | --- | --- | --- |
| CCCCN1CCCCC1C(=O)Nc1c(C)cccc1C (stereo not drawn) [bupivicaine] | not associated with changes | – | – | – |
| CNC[C@H](O)c1ccc(O)c(O)c1 [epinephrine] | – | associated with elevated plasma FABP2 | associated with | – |
| CN1CC[C@]23c4c5ccc(O)c4O[C@H]2[C@@H](O)C=C[C@H]3[C@H]1C5 [morphine] | not associated with changes | – | – | – |
| NC(=O)CC[C@@H]1NC(=O)[C@H](Cc2ccccc2)NC(=O)[C@H](Cc2ccc(O)cc2)NC(=O)[C@@H](N)CSSC[C@@H](C(=O)N2CCC[C@H]2C(=O)N[C@@H](CCCN=C(N)N)C(=O)NCC(N)=O)NC(=O)[C@H](CC(N)=O)NC1=O [vasopressin] | – | – | associated with | increase the risk for intestinal barrier dysfunction |

From patent publication US20170053081A1, “METHODS AND MATERIALS FOR CHARACTERIZING INTESTINAL BARRIER FUNCTION” (THE ARIZONA BOARD OF REGENTS ON BEHALF OF THE UNIVERSITY OF …, priority 2014, published 2017)
